Entries after “also recorded” stand apart in the source; their conditions may differ.
How the values were obtained:
Assay type in all cases: cell-based
HeLa cells [1] = assay: Apoptosis by immunoblot detection of cleaved Caspase 3 and PARP cleavage in HeLa lysates; settings: 25µM, lysates 72h post treatment
Source text: Lysates of cells treated DMSO only were used as a control.

LS174T = assay: Cell viability (CellTiter-Glo) and cell death, LS174T; settings: for cell death induced by treatment: LS174T (colon adenocarcinoma), 25µM; for viability compared to the control: LS174T, 100µM, 72h, CellTiter-Glo
Procedure: (§1) To test the anti-cancer activity of the compounds, several cancer cell lines, currently used as models for different epithelial cancers and leukemias, were treated with the indicated inhibitors. […] Every 24h, the cell culture medium was replaced by fresh compound-containing medium. 72h post treatment, cell were analyzed by adding 100µl CellTiter-Glo® assay reagent (Promega). Luminescence was measured with a LuminoskanAscent device (ThermoScientific). Cells treated with a corresponding amount of DMSO only were use as a control. The luminescence (equals cell viability) of said control was set to 100%.

Survivin = assay: Nuclear export of Survivin-GFP fusion transiently expressed in HeLa cells; settings: transient expression, 25µM
Procedure: The activity of compounds to inhibit the export of the oncologically relevant protein Survivin as well as of the HIV-1 Rev protein was analyzed.
Nuclear export of Survivin is crucial for its tumor promoting cytoprotective activity (Engels et al., 2007; Knauer et al., 2007a; Knauer et al., 2007b).

HeLa cells [2] = assay: Cell viability (CellTiter-Glo) and cell death, HeLa; settings: for cell death induced by treatment: HeLa (cervix carcinoma), 25µM; for viability compared to the control: HeLa, 100µM, 72h, CellTiter-Glo; for IC50: Homo sapiens, compound concentration reducing HeLa cell viability by 50%
Procedure: as §1
(§2) IC50 value corresponds to compound concentration reducing HeLa cell viability by 50%. Topt is the time point post treatment when maximum nuclear export inhibition was observed by fluorescence microscopy. Table 4: Functional characteristics of nuclear export inhibitors
It was assessed whether the export inhibitors also affect the viability of non-malignant human cells, precluding their potential (pre)clinical use. 10^3 freshly isolated non-malignant primary human fibroblasts (HTF-8) or HeLa cells/well were seeded and 24h later treated with the indicated compounds (final concentration: 100µM). Every 24h cell culture medium was replaced by freshly prepared compound-containing medium. 72h post treatment the cells were analyzed by adding 100µl CellTiter-Glo® assay reagent, and luminescence measured with a LuminoskanAscent (ThermoScientific). Cells treated with DMSO only were used as a control. The fluorescence measured (equals cell viability) with said control was set to 100%.

A431 = assay: Cell viability (CellTiter-Glo) and cell death, A431; settings: for cell death induced by treatment: A431 (epidermoid carcinoma), 25µM; for viability compared to the control: A431, 100µM, 72h, CellTiter-Glo
Procedure: as §1

KASUMI-1 = assay: Cell death, KASUMI-1; settings: KASUMI-1 (acute myeloid leukemia, AML), 25µM
K562 (Bcr-Abl^+) = assay: Cell death, K562; settings: K562 (Bcr-Abl^+) (chronic myeloid leukemia, CML), 25µM
[3] = system: HIV-1 (strain NL4-3; CXCR-4 tropic); assay: HIV-1 replication inhibition assay in infected Tzm-bl cells (RT activity in supernatant); settings: 25 or 50µM added 24h post infection, read 48h post infection
Procedure: The HIV-1 Rev protein transports unspliced and inclompletely spliced viral RNAs from the nucleus into the cytoplasm, crucial for viral replication and AIDS development (Pavlakis and Stauber, 1998; Stauber et al., 1995). […] 24h post infection, DMSO only (control) or compounds C3 or C5 (stock solution in DMSO) were added to a final concentration of 25 or 50µM. 24h later (= 48h post infection) the viral particles in the supernatant were quantified by measuring reverse transcriptase (RT) activity in the viral supernatant using the RT-Lenti Kit (Cavidi-Tech; Uppsala, Sweden) (see Fig. 6A).

RevNES-biosensor = RevNES-biosensor translocation (NES-mediated nuclear export) in living HeLa cells, fluorescence microscopy; settings: for Cellular localization of green fluorescent RevNES-biosensor: HeLa; for Topt at 25µM: Table 4, fluorescence microscopy; for Mode of Inhibition: reversal of export inhibition after 24h, C5: 5-12h observation
Procedure: The activity of compounds C3, C5 and C24 to inhibit NES-mediated nuclear export in living cells was analyzed as described in Fetz et al., 2009 using living HeLa (cervix carcinoma), FaDu (head and neck cancer), MDA-MB231 (mammacarcinoma) and SW480 cells (colon cancer) which transiently expressed the RevNES-biosensor. The RevNES-biosensor is a fusion protein composed of (from N to C terminus) the SV40 large T-antigen nuclear localization signal (NLS), glutathion-S-transferase (GST), green fluorescent protein (GFP) and the nuclear export signal (NES) of the HIV-1 (human immunodeficiency virus) Rev protein (RevNES).
The cells of the control were treated with a corresponding amount of DMSO only. The cellular localization of RevNES-biosensor was monitored by fluorescence microscopy. […] Maximum of cellular accumulation was observed after 1h (C24), after 2h (C3) and after 5h (C5), respectively. […] Thus, the inhibitory activity of C3 and C24 (reversible) but not of C5 (irreversible) was reversed after 24h. Table 1: Cellular localization of green fluorescent RevNES-biosensor
Table 3: Cellular localization of green fluorescent RevNES-biosensor
as §2

Row | SMILES | drug-induced apoptosis (cleaved Caspase 3 and PARP cleavage) (HeLa cells [1]) | cell death induced by treatment (LS174T) | viability compared to the control (LS174T) | Localization of Survivin-GFP fusion (nuclear export of Survivin) (Survivin) | cell death induced by treatment (HeLa cells [2]) | viability compared to the control (HeLa cells [2]) | IC50 (HeLa cells [2]) [µM] | cell death induced by treatment (A431) | viability compared to the control (A431) | cell death induced by treatment (KASUMI-1) | cell death induced by treatment (K562 (Bcr-Abl^+)) | RT-activity in the viral supernatant compared to the control [3] | Cellular localization of green fluorescent RevNES-biosensor (RevNES-biosensor; 25µM, T = 0h) | Cellular localization of green fluorescent RevNES-biosensor (RevNES-biosensor; 25µM, T = 24h) | Cellular localization of green fluorescent RevNES-biosensor (RevNES-biosensor; 25µM, at Topt) | Cellular localization of green fluorescent RevNES-biosensor (RevNES-biosensor; 75µM, T = 0h) | Cellular localization of green fluorescent RevNES-biosensor (RevNES-biosensor; 150µM, T = 0h) | Topt at 25µM (RevNES-biosensor; 25µM) | Mode of Inhibition (RevNES-biosensor) | further results
1 | O=C(NC1CS(=O)(=O)CC1Cl)c1cccc(C(F)(F)F)c1 (centres unmarked) [Compound C5, N-(4-chloro-1,1-dioxothiolan-3-yl)-3-(trifluoromethyl)benzamide] | drug-induced apoptosis was shown | cell death | significantly reduced viability | inhibited; also recorded: accumulated in the nucleus | cell death | significantly reduced viability; also recorded: significantly affect the viability | 17 | cell death | significantly reduced viability | cell death | cell death | significantly reduced the RT-activity | cytoplasm | nuclear fluorescence; also recorded: nucleus | nuclear accumulation; also recorded: nucleus | cytoplasm | cytoplasm | 5 to 6 h | irreversible; also recorded: irreversible* | Cellular localization of green fluorescent RevNES-biosensor (RevNES-biosensor; 25µM, T = 3h): nucleus/cytoplasm; Cellular localization of green fluorescent RevNES-biosensor (RevNES-biosensor; 75µM, T = 3h): nucleus; Cellular localization of green fluorescent RevNES-biosensor (RevNES-biosensor; 150µM, T = 3h): nucleus
2 | NC(=O)c1c(NC(NC(=O)c2ccccc2F)(C(F)(F)F)C(F)(F)F)sc2c1CCCC2 [Compound C3, 2-[[1,1,1,3,3,3-hexafluoro-2-[(2-fluorobenzoyl)amino]propan-2-yl]amino]-4,5,6,7-tetrahydro-1-benzothiophene-3-carboxamide] | drug-induced apoptosis was shown | cell death | significantly reduced viability | inhibited; also recorded: accumulated in the nucleus | cell death | significantly reduced viability; also recorded: significantly affect the viability | 38 | cell death | significantly reduced viability | cell death | cell death | significantly reduced the RT-activity | cytoplasm | predominantly localized in the cytoplasm | nuclear accumulation; also recorded: nucleus | cytoplasm | cytoplasm | ∼1h | reversible | Cellular localization of green fluorescent RevNES-biosensor (RevNES-biosensor; 25µM, T = 1h): nucleus/cytoplasm; Cellular localization of green fluorescent RevNES-biosensor (RevNES-biosensor; 75µM, T = 1h): nucleus; Cellular localization of green fluorescent RevNES-biosensor (RevNES-biosensor; 150µM, T = 1h): nucleus
